The results in this text go back to ChEMBL document CHEMBL4680342, “Discovery of DB18, a potent inhibitor of CLK kinases with a high selectivity against DYRK1A kinase” (Bioorg Med Chem, 2021).

Structures are written as SMILES.

Data set [1] has as its target T1, Dual specificity tyrosine-phosphorylation-regulated kinase 2 (Homo sapiens, UniProt Q92630).
T1 sequence (Q92630 whole entry): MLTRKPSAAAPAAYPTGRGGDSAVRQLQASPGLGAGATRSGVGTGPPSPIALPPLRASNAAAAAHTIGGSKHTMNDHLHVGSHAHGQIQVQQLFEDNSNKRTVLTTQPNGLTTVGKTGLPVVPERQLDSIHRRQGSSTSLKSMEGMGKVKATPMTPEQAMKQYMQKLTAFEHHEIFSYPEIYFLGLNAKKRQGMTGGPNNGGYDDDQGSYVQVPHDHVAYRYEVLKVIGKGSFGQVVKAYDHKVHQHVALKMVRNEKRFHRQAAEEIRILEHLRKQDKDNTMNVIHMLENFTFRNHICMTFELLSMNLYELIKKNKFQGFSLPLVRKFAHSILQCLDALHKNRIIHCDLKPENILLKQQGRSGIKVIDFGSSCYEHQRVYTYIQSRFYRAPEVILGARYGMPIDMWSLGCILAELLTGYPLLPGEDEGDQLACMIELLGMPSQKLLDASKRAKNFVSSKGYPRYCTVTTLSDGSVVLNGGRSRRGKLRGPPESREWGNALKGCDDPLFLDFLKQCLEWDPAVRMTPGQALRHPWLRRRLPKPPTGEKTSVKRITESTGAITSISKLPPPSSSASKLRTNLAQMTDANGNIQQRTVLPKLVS
In words: Inhibition of human DYRK2 at 100 uM by ADP-Glo assay.

For data set [2], the target named is CDK9/cyclin T1 (Homo sapiens) (UniProt O60563+P50750). In words: Inhibition of human CDK9/CyclinT assessed as residual activity at 10 uM by ADP-Glo assay relative to control. Type of data set: protein-complex assay. (ADP-Glo turns the ADP formed in a reaction into a luminescent signal.)
Data set [3] has as its target Cyclin-dependent kinase 5/CDK5 activator 1 (Homo sapiens) (UniProt Q00535+Q15078). In words: Inhibition of human CDK5/p25 assessed as residual activity at 10 uM by ADP-Glo assay relative to control. In kind it is protein-complex assay.
In data set [4] the target is Dual specificity tyrosine-phosphorylation-regulated kinase 1B (Homo sapiens, UniProt Q9Y463). In words: Inhibition of human DYRK1B at 100 uM by ADP-Glo assay.
In data set [5] the target is Serine/threonine-protein kinase pim-1 (Homo sapiens) (UniProt P11309). In words: Inhibition of human PIM1 assessed as residual activity at 10 uM by ADP-Glo assay relative to control.
Data set [6] has as its target Dual specificity protein kinase CLK1 (Mus musculus) (UniProt P22518). In words: Inhibition of mouse CLK1 assessed as residual activity by ADP-Glo assay.
In data set [7] the target is Dual specificity tyrosine-phosphorylation-regulated kinase 1A (Homo sapiens, UniProt Q13627). In words: Inhibition of human DYRK1A at 100 uM by ADP-Glo assay.
Data set [8] deals with T2, Serine/threonine-protein kinase haspin (Homo sapiens) (UniProt Q8TF76).
T2 sequence (whole entry): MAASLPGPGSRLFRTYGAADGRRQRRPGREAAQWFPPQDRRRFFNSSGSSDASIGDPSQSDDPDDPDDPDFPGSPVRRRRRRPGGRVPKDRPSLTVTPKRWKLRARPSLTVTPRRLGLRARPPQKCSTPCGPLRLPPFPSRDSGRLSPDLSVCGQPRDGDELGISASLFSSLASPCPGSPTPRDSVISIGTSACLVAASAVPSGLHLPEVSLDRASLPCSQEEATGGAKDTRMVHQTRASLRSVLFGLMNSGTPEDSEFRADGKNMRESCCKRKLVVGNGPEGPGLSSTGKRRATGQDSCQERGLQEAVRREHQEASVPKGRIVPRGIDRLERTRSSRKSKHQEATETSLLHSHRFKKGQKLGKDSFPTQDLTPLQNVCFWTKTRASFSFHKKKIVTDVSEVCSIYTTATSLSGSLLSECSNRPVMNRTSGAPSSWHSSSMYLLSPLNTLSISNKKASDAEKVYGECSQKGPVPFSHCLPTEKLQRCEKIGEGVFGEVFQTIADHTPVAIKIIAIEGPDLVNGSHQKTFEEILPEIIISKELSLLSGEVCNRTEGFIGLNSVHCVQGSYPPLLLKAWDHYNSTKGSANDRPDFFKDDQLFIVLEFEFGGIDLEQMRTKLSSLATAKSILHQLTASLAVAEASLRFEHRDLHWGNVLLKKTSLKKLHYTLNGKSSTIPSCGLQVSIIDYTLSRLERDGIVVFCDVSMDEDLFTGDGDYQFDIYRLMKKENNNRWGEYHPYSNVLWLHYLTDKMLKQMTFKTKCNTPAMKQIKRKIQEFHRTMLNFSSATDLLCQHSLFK
In words: Inhibition of human HASPIN assessed as residual activity at 10 uM by ADP-Glo assay relative to control.

Data set [9] deals with Dual specificity tyrosine-phosphorylation-regulated kinase 1A (Rattus norvegicus, UniProt Q63470). In words: Inhibition of rat DYRK1A (1 to 499 residues) assessed as residual activity at 100 uM by ADP-Glo assay.
Data set [10] concerns the target Dual specificity protein kinase CLK1 (Mus musculus) (UniProt P22518). In words: Inhibition of mouse CLK1 assessed as residual activity at 10 uM by ADP-Glo assay relative to control.
The target in data set [11] is Casein kinase I isoform epsilon (Homo sapiens) (UniProt P49674). In words: Inhibition of human CK1epsilon assessed as residual activity at 10 uM by ADP-Glo assay relative to control.
The target in data set [12] is Glycogen synthase kinase-3 beta (Homo sapiens) (UniProt P49841). In words: Inhibition of human GSK3beta assessed as residual activity at 10 uM by ADP-Glo assay relative to control.
Data set [13] addresses DYRK1A (dual specificity tyrosine-phosphorylation-regulated kinase 1A) (Rattus norvegicus, UniProt Q63470). In words: Inhibition of rat DYRK1A (1 to 499 residues) assessed as residual activity at 10 uM by ADP-Glo assay relative to control. The following applies: rat DYRK1A enzyme (residues 1 to 499), read-out: Activity.

Sequence of Dual specificity protein kinase CLK1 (Mus musculus) (P22518 whole entry, looked up, canonical isoform): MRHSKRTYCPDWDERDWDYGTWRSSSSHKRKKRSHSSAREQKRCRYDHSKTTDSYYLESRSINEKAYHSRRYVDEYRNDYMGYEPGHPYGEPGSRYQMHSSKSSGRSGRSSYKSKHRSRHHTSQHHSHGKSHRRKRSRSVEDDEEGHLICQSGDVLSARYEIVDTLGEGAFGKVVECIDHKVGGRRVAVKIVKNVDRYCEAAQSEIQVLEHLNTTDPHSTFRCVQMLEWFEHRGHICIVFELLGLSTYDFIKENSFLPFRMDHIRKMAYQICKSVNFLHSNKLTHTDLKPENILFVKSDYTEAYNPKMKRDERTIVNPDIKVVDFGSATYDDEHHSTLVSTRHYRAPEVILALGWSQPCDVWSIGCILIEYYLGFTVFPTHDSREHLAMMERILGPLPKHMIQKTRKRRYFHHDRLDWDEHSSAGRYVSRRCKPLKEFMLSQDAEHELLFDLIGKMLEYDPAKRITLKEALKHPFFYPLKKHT
Sequence of Cyclin-dependent kinase 5/CDK5 activator 1 (Homo sapiens) (Q00535 whole entry): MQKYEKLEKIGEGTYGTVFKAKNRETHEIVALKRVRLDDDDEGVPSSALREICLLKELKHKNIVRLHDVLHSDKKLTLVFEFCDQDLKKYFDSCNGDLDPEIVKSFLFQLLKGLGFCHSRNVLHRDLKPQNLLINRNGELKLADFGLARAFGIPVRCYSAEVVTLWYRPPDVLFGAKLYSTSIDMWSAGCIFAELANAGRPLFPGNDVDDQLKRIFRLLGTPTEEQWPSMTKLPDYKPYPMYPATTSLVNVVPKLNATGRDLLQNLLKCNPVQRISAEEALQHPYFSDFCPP
Sequence of Cyclin-dependent kinase 5/CDK5 activator 1 (Homo sapiens) (Q15078 99-307 partner limits assumed): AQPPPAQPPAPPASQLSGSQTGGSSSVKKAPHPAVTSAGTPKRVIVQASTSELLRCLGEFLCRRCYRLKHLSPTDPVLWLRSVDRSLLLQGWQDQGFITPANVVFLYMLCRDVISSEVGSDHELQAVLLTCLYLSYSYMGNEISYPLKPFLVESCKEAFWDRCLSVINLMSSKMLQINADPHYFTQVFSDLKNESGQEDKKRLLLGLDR
Sequence of Serine/threonine-protein kinase pim-1 (Homo sapiens) (P11309 whole entry, looked up): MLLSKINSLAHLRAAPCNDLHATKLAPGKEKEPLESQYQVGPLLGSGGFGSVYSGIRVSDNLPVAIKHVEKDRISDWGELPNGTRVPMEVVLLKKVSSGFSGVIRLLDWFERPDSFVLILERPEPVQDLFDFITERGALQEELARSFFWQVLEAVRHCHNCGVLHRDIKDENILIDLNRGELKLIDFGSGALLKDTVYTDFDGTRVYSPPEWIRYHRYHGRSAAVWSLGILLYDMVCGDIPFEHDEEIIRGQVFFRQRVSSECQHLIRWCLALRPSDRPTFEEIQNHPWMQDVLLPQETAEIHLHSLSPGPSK
Sequence of Glycogen synthase kinase-3 beta (Homo sapiens) (P49841 whole entry, looked up, the tested form may be a part): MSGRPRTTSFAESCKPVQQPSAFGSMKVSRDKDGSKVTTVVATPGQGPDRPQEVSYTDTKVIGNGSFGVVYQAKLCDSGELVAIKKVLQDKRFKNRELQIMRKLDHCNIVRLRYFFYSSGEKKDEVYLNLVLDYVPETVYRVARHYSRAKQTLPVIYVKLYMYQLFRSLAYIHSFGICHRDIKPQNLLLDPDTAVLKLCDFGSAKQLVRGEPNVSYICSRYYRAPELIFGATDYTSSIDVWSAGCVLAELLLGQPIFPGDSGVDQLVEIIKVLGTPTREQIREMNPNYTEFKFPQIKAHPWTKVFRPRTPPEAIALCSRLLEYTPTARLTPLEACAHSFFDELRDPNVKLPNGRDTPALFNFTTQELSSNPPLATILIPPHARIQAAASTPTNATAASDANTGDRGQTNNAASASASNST
Sequence of Dual specificity tyrosine-phosphorylation-regulated kinase 1B (Q9Y463 whole entry): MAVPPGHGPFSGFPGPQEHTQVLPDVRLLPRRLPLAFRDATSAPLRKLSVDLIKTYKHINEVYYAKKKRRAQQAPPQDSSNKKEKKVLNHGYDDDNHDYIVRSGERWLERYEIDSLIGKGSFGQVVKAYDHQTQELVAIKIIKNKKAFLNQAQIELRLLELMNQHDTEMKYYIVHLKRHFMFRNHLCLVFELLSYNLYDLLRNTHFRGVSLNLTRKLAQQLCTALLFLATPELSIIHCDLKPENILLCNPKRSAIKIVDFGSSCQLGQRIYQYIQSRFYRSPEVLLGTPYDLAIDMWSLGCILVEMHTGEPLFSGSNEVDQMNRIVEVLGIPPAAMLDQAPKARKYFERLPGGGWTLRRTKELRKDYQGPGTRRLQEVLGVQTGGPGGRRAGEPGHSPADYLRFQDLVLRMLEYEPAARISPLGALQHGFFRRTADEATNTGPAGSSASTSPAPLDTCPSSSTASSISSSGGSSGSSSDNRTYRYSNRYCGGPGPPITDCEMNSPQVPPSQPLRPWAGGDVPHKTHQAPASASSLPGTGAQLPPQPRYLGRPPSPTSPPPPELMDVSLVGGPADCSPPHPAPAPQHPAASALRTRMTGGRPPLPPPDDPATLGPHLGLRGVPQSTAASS
Sequence of Casein kinase I isoform epsilon (Homo sapiens) (P49674 whole entry, looked up, canonical isoform): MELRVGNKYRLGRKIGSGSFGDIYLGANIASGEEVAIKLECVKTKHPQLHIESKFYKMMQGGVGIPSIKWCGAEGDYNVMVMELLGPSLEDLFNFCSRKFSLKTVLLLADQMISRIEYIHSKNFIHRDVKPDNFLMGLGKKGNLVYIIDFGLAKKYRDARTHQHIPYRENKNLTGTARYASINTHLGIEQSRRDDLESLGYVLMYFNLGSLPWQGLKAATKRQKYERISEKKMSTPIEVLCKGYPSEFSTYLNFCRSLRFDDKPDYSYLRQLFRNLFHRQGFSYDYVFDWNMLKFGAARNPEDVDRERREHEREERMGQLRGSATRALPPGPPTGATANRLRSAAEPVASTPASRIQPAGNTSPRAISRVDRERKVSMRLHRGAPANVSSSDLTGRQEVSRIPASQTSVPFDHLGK

`Cc1ccc(-n2cc(COc3cccc4cnc(Nc5cccc(Cl)c5)nc34)nn2)c([N+](=O)[O-])c1`: the “inhibition (INH)” value in [1], in data set [4], in [7] and in data set [9] was “Not Active” throughout. Moreover, the Activity in data set [2] amounted to 54%; in [3], 84%; in data set [5], 81%; in [8] it was 94%; in data set [10], 11%. Besides, the IC50 in data set [6] was 0.12 µM.
Take `Cc1ccc(-n2cc(COc3cccc4cnc(Nc5cccc(Cl)c5)nc34)nn2)cc1[N+](=O)[O-]`: the Activity in data set [11] was 41%; in data set [2], 25%; in data set [12], 14%; in data set [3] it was 40%; in data set [5], 45%; in [8], 44%. The Activity in data set [10] came out at 16%. Moreover, the activity at 10 µM in [13] was found to be 74%. In addition, the IC50 in [6] is 3 µM.

A word on the IC50: it is the concentration that inhibits the measured activity by half.
